Test results: article PMC10648204, “Discovery of Novel Biphenyl Carboxylic Acid Derivatives as Potent URAT1 Inhibitors” (Molecules, 2023)

Legend:
URAT1 = details: general statement in the introduction; cited from earlier work
human URAT1 = molecular target: T1, human URAT1 (Homo sapiens, UniProt Q96S37); test: In vitro URAT1 inhibitory assay (14C-uric acid uptake in HEK293T cells expressing human URAT1); assay type: cell-based; details: HEK293-URAT1 cells, 14C-labeled uric acid substrate; for inhibition at 10 µM: HEK-293T, 10 μM compound, mean of three measurements
T1 construct: expressed in transfected cells; host or cells: HEK293T cells (ATCC CRL-11268)
T1 sequence (Q96S37 1-553): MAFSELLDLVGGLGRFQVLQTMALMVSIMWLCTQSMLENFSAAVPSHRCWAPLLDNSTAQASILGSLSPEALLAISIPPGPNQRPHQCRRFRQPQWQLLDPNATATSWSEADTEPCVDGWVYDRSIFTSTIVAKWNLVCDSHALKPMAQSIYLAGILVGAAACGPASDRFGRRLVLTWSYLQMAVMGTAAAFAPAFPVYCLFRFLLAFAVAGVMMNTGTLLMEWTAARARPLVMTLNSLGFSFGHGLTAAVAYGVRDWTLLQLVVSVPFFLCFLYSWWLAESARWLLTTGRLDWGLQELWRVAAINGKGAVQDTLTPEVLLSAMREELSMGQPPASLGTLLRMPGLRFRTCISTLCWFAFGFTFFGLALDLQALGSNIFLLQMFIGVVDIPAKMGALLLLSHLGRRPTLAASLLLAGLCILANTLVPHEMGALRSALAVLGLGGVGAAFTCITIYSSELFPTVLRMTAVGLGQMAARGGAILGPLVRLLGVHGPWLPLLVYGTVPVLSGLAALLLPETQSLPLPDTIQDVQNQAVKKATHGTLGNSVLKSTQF
Method: All the target compounds were evaluated for their URAT1 inhibitory activities in HEK293-URAT1 cells using ^14C-labeled uric acid as the substrate. […] The SAR exploration on series A compounds mainly focused on the hydrophobic component. […] For series B compounds, the ortho-substituted biphenyl carboxylic acid was initially kept, and various aromatic components were incorporated (B1–B25). […] Different substituents were introduced onto the 4-pyridyl (B15–B21).
In Vitro URAT1 Inhibitory Assay. A transient expression system of human URAT1 in HEK293T cells was constructed to measure ^14C-uric acid transport. […] The cell cryovials were removed from liquid nitrogen storage, and immediately placed on dry ice prior to thawing. […] The cell suspension was transferred into a 15 mL centrifuge tube, and 10 mL complete medium (DMEM +10% FBS +500 μg/mL G418 +1% P/S) was added. After centrifugation at 1000 rpm for 5 min, the supernatant was discarded, and cell precipitation was resuspended in 5 mL complete medium and transferred to a T75 culture flask. […] The uptake assay test could be carried out after cell culture adherent to the well in the 96-well plate. Then, the cells were washed with 200 µL/well of pre-warmed Cl^- free HBSS buffer, and all buffer was removed at the last washing. 50 µL/well of Cl^- free HBSS Buffer containing Uric acid [8-^14C] (2.5 μCi/mL) and samples were added to the cells, and incubated for 8 min. Then, the cells were washed three times with Cl^- free HBSS Buffer and all buffer was removed at the last washing. 50 µL/well of lysis buffer (100 mM NaOH) was added to the lysate cells and stirred at 900 rpm for 5 min. 150 µL/well MicroScint™-40 cocktail was added and agitated at 900 rpm for 5 min. Finally, the 96-plate was counted in a MicroBeta2 (PerkinElmer). The data were analyzed and IC50 values was calculated with GraphPad Prism 6 software.

SMILES | IC50 (URAT1 inhibitor potency level, in words) (URAT1) | IC50 (human URAT1) [nM] | inhibition at 10 µM (human URAT1) [%] | melting point [°C]
O=C(O)CSc1nnc(Br)n1-c1ccc(C2CC2)c2ccccc12 [Lesinurad] | micromolar level | – | – | –
CCc1oc2ccccc2c1C(=O)c1cc(Br)c(O)c(Br)c1 [Benz, benzbromarone] | submicromolar level | – | – | –
Cc1cc(-c2noc(-c3ccccc3-c3ccccc3C(=O)O)n2)ccn1 [Compound B18] | – | 280 | 97 | 228 to 230
O=C(O)c1ccccc1-c1ccccc1-c1nc(-c2ccc(F)cc2)no1 [Compound B1] | – | – | 56 | 150 to 153
O=C(O)c1ccccc1-c1ccccc1C(=O)N1CCCc2ccc(-c3ccncc3)cc21 [Compound A13] | – | 1500 | 86 | 266 to 268
O=C(O)c1cccc(-c2ccccc2-c2nc(-c3ccncc3)no2)c1 [Compound B28] | – | – | 29 | 288 to 289
